Measurements as given in patent US5707821A, “Identification of phospholipase A2 inhibitors in Aβ peptide-mediated neurodegenerative disease” (priority 1995, dated 1998).
Read-outs that look alike come from different tables or passages of the source.

How the values were obtained:
[1] = test system: human cortical neurons; experiment: Aβ neurotoxicity in human cortical neurons (alamarBlue), 2 h pretreatment with inhibitor; assay type: cell-based; details: 50 μM Aβ1-40, compound 390 nM to 100 μM, 2 h pretreatment and re-added with Aβ, 3 days, n=3; for Emax / IC50: Homo sapiens, Cortical neurone; for Emax: 72 h, read-out: Max Inh; for IC50: ND = not detected at the concentration range used, read-out: IC50 (dose that inhibited Aβ-mediated neurotoxicity by 50%)
Description: (§1) Cultures of human cortical or hippocampal neurons were prepared using a modification of the procedure described in P. Seubert et al. (1992), Nature 359:325-327. Cortical or hippocampal tissue was dissociated by incubation in a trypsin/EDTA solution (0.05% trypsin +0.53 mM EDTA in HBSS; Gibco) for 20 minutes at 37° C. The trypsin was then inactivated by resuspending the cells in serum-containing medium (MEM/FBS): Modified Eagle's Medium (MEM) containing 1% glucose, 1 mM sodium pyruvate, 1 mM glutamine, and supplemented with 10% fetal bovine serum (Gibco). Cells were then pelleted by centrifugation and resuspended in a chemically-defined medium (MEM/B27): MEM containing B27 supplement (Gibco) in place of FBS. Polyethyleneimine (PEI)-coated 6.4-mm (96-well) dishes were rinsed once with MEM/FBS, and then seeded at 0.75-1.25×10^5 cells per well in 0.1 ml MEM/B27. Cultures were maintained in a H2 O-saturated incubator with an atmosphere of 95% air/5% CO2 at 37° C. The culture medium was exchanged twice weekly.
(§2) Amyloid-β (Aβ) stock solutions were prepared as 1 mM stocks in sterile ddH2 O immediately prior to addition to cultures. Rat cortical neurons were exposed to Aβ by removing the culture medium and replacing it with DMEM/N2 or DMEM/B27 containing Aβ1-40. Human cortical neurons were exposed to Aβ by removing the culture medium and replacing it with MEM, MEM/N2, or MEM/B27 containing Aβ1-40. Cultures were maintained for 2-4 days before neuronal survival was quantified using alamarBlue™.
(§3) The alamarBlue™ assay incorporated a proprietary fluorometric/colorimetric metabolic indicator (Alamar Biosciences, Inc.). Viable cells convert alamarBlue™ from an oxidized (non-fluorescent, blue) form to a reduced (fluorescent, red) form. Assays were performed by replacing the culture media with a 10% alamarBlue™ solution in DMEM (rat cortical cultures) or MEM (human cortical cultures). Reduction of alamarBlue™ was determined spectrofluorometrically using a Millipore Cytofluor 2350 Scanner (excitation, […]; emission, 590 nm) and CytoCalc™ software (Millipore Corporation).
The effect of pretreating human cortical neuron cultures with the benzenesulfonamide PLA2 inhibitors and arachidonyl trifluoromethyl ketone prior to exposure to a neurotoxic concentration of Aβ1-40 was determined.
(§4) Human cortical neurons were treated with 50 μM Aβ1-40 and various inhibitors of PLA2. Compounds were added 2 hours prior to Aβ1-40 treatment at concentrations of 390 nM to 100 μM, and were then re-added at the time of Aβ1-40 treatment. Compounds were also added in an identical manner to neuronal cultures in the absence of Aβ1-40. Neuronal survival was determined after 3 days of treatment by alamarBlue®. IC50 is the dose of compound that inhibited Aβ-mediated neurotoxicity by 50%. […] Data represents the mean ± SD (n=3). ND, not detected at the concentration range used.

[2] = test system: IL-1β release by cultured human cortical microglia; experiment: IL-1β release (ELISA) from Aβ1-40-stimulated human microglia; assay type: cell-based; details: 50 μM Aβ1-40, 1 day; compound 0, 5, 10, 20 μM; FIG. 2
Description: (§5) Cultures of human cortical or hippocampal astrocytes and microglia were prepared using a modification of the procedure described for cortical neurons. Cortical tissue from fetuses of 16 to 20 weeks of gestation was washed 3 times in Ca^2+ /Mg^2+ free Hanks balanced salt solution (CMF HBSS) and then dissociated by repeated pipetting. The solution was brought to a final volume of 80 ml CMF HBSS for approximately 10 ml of tissue. DNase (Sigma) was added to a final concentration of 0.05 mg/ml. 20 ml of the solution was passed through one 100 μm nylon cell strained (Falcon). The cells were then centrifuged for 5 minutes at 200×G in an IEC Clinical Centrifuge and resuspended in a trypsin/EDTA solution (0.05% trypsin+0.53 mM EDTA in HBSS; Gibco) and incubated for 20 minutes at 37°C. (10 ml of trypsin was added per 2-3 ml of tissue). The trypsin was then inactivated by adding (MEM/FBS): Modified Eagle's Medium (MEM) containing 1% glucose, 1 mM sodium pyruvate, 1 mM glutamine, and supplemented with 10% fetal bovine serum (JRH). After adding a final concentration of 0.05 mg/ml DNase the cells were resuspended and then pelleted by centrifugation and resuspended in MEM/FBS. 1.6×10^8 cells were seeded in a T-150 tissue culture flask coated with polyethyleneimine (PEI). (10% PEI (Sigma) was diluted 1:10 in H2 O, filtered through a […] unit and then diluted into 150 mM sodium borate pH 8.5 at 1:100. The flasks were coated overnight at room temperature, washed two times in PBS and coated with 20 ml/flask of MEM/FBS at 37° C. for at least one hour prior to plating cells.) Cultures were maintained in a H2 O-saturated incubator with an atmosphere of 95% air/5% CO2 at 37° C. The culture medium was changed one and four days after plating and the cultures were then left undisturbed for at least one week. After approximately two weeks in vitro, the flasks were gently shaken and floating microglia were collected and centrifuged for 5 minutes at 200×G in an IEC Clinical Centrifuge. The microglia were reseeded in 96 well tissue culture plates at a density of 5,000-40,000 cells/well in 125 μl in MEM/FBS. Astrocyte cultures were prepared by multiple passaging of the established mixed brain cell cultures. Each T-150 was incubated for 3-4 minutes at 37°C. with a trypsin/EDTA solution (see above). The trypsin was then inactivated by adding MEM/FBS. The cells were triturated and then pelleted by centrifugation and resuspended in MEM/FBS. The cells from one T-150 were seeded at a 1:30 to 1:5 dilution in T-150's not coated. Just prior to confluency the cells were repassaged by trypsinization as described above. This process was repeated until the cultures were >98% pure astrocytes.
(§6) Cultured microglial cells were treated with 50 μM of Aβ1-40 or vehicle only (Control). The levels of IL-1β, IL-6, and TNF-α released into the culture medium were determined by ELISA assay (R&D Systems) according to manufacturer's instructions.
(§7) The effect of two benzenesulfonamide inhibitors of PLA2 (European Patent Application 468 054) were examined on the activation of microglial cells by Aβ1-40 as in Example 1.
(§8) The effects of the benzenesulfonamide PLA2 inhibitor AN20606 and the selective cytosolic PLA2 inhibitor arachidonyl trifluoromethyl ketone (AN20579) were examined in cultured human cortical microglia for their selectivity for inhibiting microglia activation mediated by amyloid-βpeptide and lipopolysaccharides (LPS). LPS are a major constituent of the cell wall of gama-negative bacteria and are extensively used for generating inflammatory responses in cultured cells and in vivo.

[3] = test system: TNF-α release by cultured human cortical microglia; experiment: TNF-α release (ELISA) from Aβ1-40-stimulated human microglia; assay type: cell-based; details: 50 μM Aβ1-40, 1 day; compound 0, 5, 10, 20 μM; FIG. 2
Description: as §5, §6, §7, §8

[4] = test system: human cortical neurons; experiment: Aβ neurotoxicity / survival of human cortical neurons (alamarBlue), compound added at time of Aβ1-40; assay type: cell-based
Description: as §1, §2, §3
The effect of the two benzenesulfonamide inhibitors of PLA2 in Example 2 were examined to determine the dose-dependence of their effect on neuronal survival in human cortical neuron cultures exposed to 0 μM, 25μM, or 50 μM of Aβ1-40 and varying doses of the benzenesulfonamide.
(§9) Human cortical neurons were treated with 50 μM Aβ1-40 and various inhibitors of PLA2 or PLC. Compounds were added at the time of Aβ1-40 treatment at concentrations 390 nM to 100 μM. Compounds were also added to neuronal cultures in the absence of Aβ1-40. Neuronal survival was determined after 3 days of treatment by alamarBlue®. IC50 is the dose of compound that inhibited Aβ-mediated neurotoxicity by 50%. […] Data represents the mean ± SD (n=3). ND, not detected at the concentration range used.

[5] = test system: human cortical neurons; experiment: Compound toxicity to human cortical neurons in absence of Aβ1-40 (alamarBlue, 3 days); assay type: cell-based
Description: as §1, §3, §9

[6] = test system: human cortical neurons; experiment: Compound toxicity to human cortical neurons in absence of Aβ1-40, added as in pretreatment protocol; assay type: cell-based; details: no Aβ1-40, 3 days; for TD10 (concentration giving 10% loss of neuronal survival): n=3
Description: as §1, §3, §4

[7] = test system: cPLA2; details: Street et al. (1993); cited from earlier work
[8] = test system: Ca^+2 -independent PLA2; details: Ackermann et al. (1995); cited from earlier work
[9] = Compound toxicity to human cortical neurons in absence of Aβ1-40 (alamarBlue, 3 days); assay type: cell-based; details: human, cortical neurons
Description: as §1, §3, §9

[10] = 50 μM Aβ1-40, compound 390 nM to 100 μM added at time of Aβ, 3 days, n=3

## CCCCCCCCCCCC=CC(C)(C)C=CCCCC(=O)O [DEDA, 7,7,-dimethyl-5,8-eicosadienoic acid]
[1]
  Emax: 19%

## C[C@H]1c2cccc(O)c2C(O)=C2C(=O)[C@]3(O)C(O)=C(C(N)=O)C(=O)[C@@H](N(C)C)[C@@H]3[C@@H](O)[C@@H]21 [Doxycycline]
[1]
  Emax: 0%

## CN(C(=O)/C=C/c1ccc(C#N)cc1)c1ccc(S(=O)(=O)NC2CCCCCC2)cc1 [AN20628]
[2]
  amount of IL-1β released into the medium (in words): marked and dose-dependent decrease
[3]
  amount of TNF-α released into the medium (in words): marked and dose-dependent decrease
[1]
  Emax: 87%
  IC50: 4 µM
[4]; 0, 25 or 50 μM Aβ1-40, varying doses, FIG. 3, FIG. 4
  neuronal survival in the presence of pathogenic Aβ peptide (in words): dose-dependent increase in neuronal survival
[4]; [10]
  Max Inh: 82%
[4]; Homo sapiens, Cortical neurone, 72 h, 50 μM Aβ1-40, compound 390 nM to 100 μM added at time of Aβ, 3 days, n=3, ND = not detected at the concentration range used, read-out: IC50 (dose that inhibited Aβ-mediated neurotoxicity by 50%)
  IC50: 8 µM
[5]; human, 4320 min
  TD10 (concentration giving 10% loss of neuronal survival): 73 µM

## CN(C)c1ccc(O)c2c1C[C@H]1C[C@H]3[C@H](N(C)C)C(O)=C(C(N)=O)C(=O)[C@@]3(O)C(O)=C1C2=O [Minocycline]
[6]
  TD10 (concentration giving 10% loss of neuronal survival): 78 µM
[1]
  Emax: 69%
  IC50: 71 µM

## CCCCCCCCCCCCCCCC(=O)C(F)(F)F [palmitoyl trifluoromethyl ketone]
[7]
  inhibition of cPLA2: capable of inhibiting
[8]
  inhibition of Ca^+2 -independent PLA2 activity: capable of inhibiting

## O=C1O/C(=C/Br)CCC1c1cccc2ccccc12 (stereo not drawn) [Bromoenol Lactone, (e)-6-(bromomethylene)tetrahydro-3-(1-naphthalenyl)-2H-pyran-2-one]
[1]
  Emax: 41%
[7]
  inhibition of cPLA2: capable of inhibiting
[8]
  inhibition of Ca^+2 -independent PLA2 activity: capable of inhibiting

## Oleoyloxyethyl Phosphocholine
[6]
  TD10 (concentration giving 10% loss of neuronal survival): 17 µM
[6]; n=3, ND = not detected at the concentration range used, read-out: TD50 (concentration giving 50% loss of neuronal survival)
  CC50: 29 µM
[1]
  Max Inh: 40%

## COc1ccc2c(c1)CC[C@@H]1[C@@H]2CC[C@]2(C)[C@@H](NCCCCCCN3C(=O)CCC3=O)CC[C@@H]12 [U73343]
[4]; [10]
  Max Inh: 10%
[9]; no Aβ1-40, 3 days, 390 nM to 100 μM, n=3, ND = not detected at the concentration range used, read-out: TD50 (concentration giving 50% loss of neuronal survival)
  CC50 at 72 h: 8 µM
[5]; no Aβ1-40, 3 days, 390 nM to 100 μM, n=3
  TD10 (concentration giving 10% loss of neuronal survival): 6 µM

## CCN(CC)CCCC(C)Nc1c2ccc(Cl)cc2nc2ccc(OC)cc12 (stereo not drawn) [Quinacrine]
[4]; [10]
  Max Inh: 2%
[9]
  CC50 at 72 h: 9 µM
[5]; human, 4320 min
  TD10 (concentration giving 10% loss of neuronal survival): 6 µM
